Experimental data: patent US9828379B2 (priority 2013, dated 2017)

Assays:
MAGL [1] = molecular target: T1, MAGL (Mus musculus, UniProt O35678); assay: biochemical; conditions: mouse; in vitro competitive ABPP; read-out: Mouse (IC50 value, nM) MAGL
T1 sequence (O35678 1-303): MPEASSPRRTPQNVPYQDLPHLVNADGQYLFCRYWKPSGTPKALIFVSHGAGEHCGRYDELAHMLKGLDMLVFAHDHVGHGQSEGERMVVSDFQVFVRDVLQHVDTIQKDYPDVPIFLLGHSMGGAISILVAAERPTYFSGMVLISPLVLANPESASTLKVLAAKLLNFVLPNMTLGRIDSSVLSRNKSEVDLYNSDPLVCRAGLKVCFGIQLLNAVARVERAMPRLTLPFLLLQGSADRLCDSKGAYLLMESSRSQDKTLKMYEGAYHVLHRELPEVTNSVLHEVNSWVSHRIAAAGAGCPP

Mouse brain MAGL = molecular target: T2, Mouse brain MAGL (Mus musculus, UniProt O35678); assay: Mouse brain proteomes from inhibitor treated mice (oral gavage, ABPP analysis); assay type: in vivo; conditions: p.o., sacrificed 4 h following administration
T2 construct: from tissue; host or cells: brain of wild-type C57Bl/6J mice dosed by oral gavage
T2 sequence (O35678 1-303): T1 sequence (O35678 1-303)
Procedure: After 30 min, FP—Rh (1.0 μL, 50 μM in DMSO) was added and the mixture was incubated for another 30 min at 37° C. Reactions were quenched with SDS loading buffer (50 μL-4×) and run on SDS-PAGE. Following gel imaging, serine hydrolase activity was determined by measuring fluorescent intensity of gel bands corresponding to MAGL, ABHD6 and FAAH using ImageJ 1.43 u software.
Inhibitors were administered to wild-type C57Bl/6J by oral gavage in a vehicle of polyethylene glycol. Each animal was sacrificed 4 h following administration and brain proteomes were prepared and analyzed according to previously established methods (See Niphakis, M. J., et al. (2011) ACS Chem. Neurosci. and Long, J. Z., et al. Nat. Chem. Biol. 5:37-44).

FAAH [2] = molecular target: T3, FAAH (Mus musculus, UniProt O08914); assay: biochemical; conditions: in vitro competitive ABPP
T3 sequence (O08914 1-579): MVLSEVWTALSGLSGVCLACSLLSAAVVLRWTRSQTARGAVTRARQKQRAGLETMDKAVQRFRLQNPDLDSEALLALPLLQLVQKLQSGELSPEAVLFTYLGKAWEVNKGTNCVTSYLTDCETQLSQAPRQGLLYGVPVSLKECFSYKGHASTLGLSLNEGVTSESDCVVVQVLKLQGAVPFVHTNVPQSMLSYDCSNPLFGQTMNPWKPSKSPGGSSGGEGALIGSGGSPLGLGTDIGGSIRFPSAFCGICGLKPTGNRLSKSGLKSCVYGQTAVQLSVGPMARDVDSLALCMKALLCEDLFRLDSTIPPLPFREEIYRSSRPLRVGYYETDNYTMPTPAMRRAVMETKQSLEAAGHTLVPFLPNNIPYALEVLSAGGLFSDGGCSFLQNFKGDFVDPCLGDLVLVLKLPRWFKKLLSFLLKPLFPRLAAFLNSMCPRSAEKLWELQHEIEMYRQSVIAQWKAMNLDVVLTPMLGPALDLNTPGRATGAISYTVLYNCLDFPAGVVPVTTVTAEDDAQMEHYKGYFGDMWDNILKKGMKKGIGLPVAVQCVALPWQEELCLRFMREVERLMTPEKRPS

FAAH [3] = molecular target: T3, FAAH; assay: In vitro competitive activity-based protein profiling (Table 2, % inhibition at 1 μM); assay type: biochemical; conditions: read-out: % Inhibition at 1 μM FAAH
ABHD6 [4] = molecular target: T4, ABHD6 (Mus musculus, UniProt Q8R2Y0); assay: as above; assay type: biochemical; conditions: read-out: % Inhibition at 1 μM ABHD6
T4 sequence (Q8R2Y0 1-336): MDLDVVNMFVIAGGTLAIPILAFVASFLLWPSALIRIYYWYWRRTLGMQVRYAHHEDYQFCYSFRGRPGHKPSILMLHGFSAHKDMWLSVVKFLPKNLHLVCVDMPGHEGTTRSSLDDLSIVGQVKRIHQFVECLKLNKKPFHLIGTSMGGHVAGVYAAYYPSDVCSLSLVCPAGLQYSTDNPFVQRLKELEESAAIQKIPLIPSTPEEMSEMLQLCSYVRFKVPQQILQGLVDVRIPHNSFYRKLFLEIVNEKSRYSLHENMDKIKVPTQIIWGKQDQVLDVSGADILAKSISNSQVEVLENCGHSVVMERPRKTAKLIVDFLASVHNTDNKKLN

ABHD6 [5] = molecular target: T4, ABHD6; assay: biochemical; conditions: in vitro competitive ABPP
MAGL [6] = molecular target: T1, MAGL; assay: In vitro competitive activity-based protein profiling (Table 2, % inhibition at 1 μM); assay type: biochemical; conditions: read-out: % Inhibition at 1 μM MAGL
Procedure: After 30 min, FP—Rh (1.0 μL, 50 μM in DMSO) was added and the mixture was incubated for another 30 min at 37° C. Reactions were quenched with SDS loading buffer (50 μL-4×) and run on SDS-PAGE.
Cell lysates were diluted with mock proteomes for use in competitive ABPP experiments.

SMILES	IC50 (MAGL [1]) [nM]	inhibition at 5 mg/kg (Mouse brain MAGL) [%]	IC50 (FAAH [2]) [nM]	inhibition at 1 µM (FAAH [3]) [%]	inhibition at 1 µM (ABHD6 [4]) [%]	IC50 (ABHD6 [5]) [nM]	inhibition at 1 µM (MAGL [6]) [%]
Cc1cccc(CN2CC3CN(C(=O)OC(C(F)(F)F)C(F)(F)F)CC3C2)c1N1CCC2(CCOC2)C1 (stereo not shown) [Example 40, 1,1,1,3,3,3-Hexafluoropropan-2-yl 5-[(3-methyl-2-[2-oxa-7-azaspiro[4.4]nonan-7-yl]phenyl)methyl]-octahydropyrrolo[3,4-c]pyrrole-2-carboxylate]	< 100	25 to 75	1000 to 10000	< 25	< 25	1000 to 10000	> 75
CCn1cc(CN2CC3CN(C(=O)OC(C(F)(F)F)C(F)(F)F)CC3C2)c(-c2cccnc2)n1 (stereo not shown) [Example 71, 1,1,1,3,3,3-Hexafluoropropan-2-yl 5-[[1-ethyl-3-(pyridin-3-yl)-1H-pyrazol-4-yl]methyl]-octahydropyrrolo[3,4-c]pyrrole-2-carboxylate]	< 100	25 to 75	1000 to 10000	< 25	25 to 75	1000 to 10000	> 75
CCn1cc(CN2CC3CN(C(=O)OC(C(F)(F)F)C(F)(F)F)CC3C2)c(-c2ccccc2N2CCOCC2)n1 (stereo not shown) [Example 131, 1,1,1,3,3,3-hexafluoropropan-2-yl 5-([1-ethyl-3-[2-(morpholin-4-yl)phenyl]-1H-pyrazol-4-yl]methyl)-octahydropyrrolo[3,4-c]pyrrole-2-carboxylate]	< 100	≥ 75	> 10000	< 25	< 25	1000 to 10000	> 75
CC(C)c1cc(CN2CC3CN(C(=O)OC(C(F)(F)F)C(F)(F)F)CC3C2)n(C2CCOCC2)n1 (stereo not shown) [Example 62, 1,1,1,3,3,3-Hexafluoropropan-2-yl 5-[[1-(oxan-4-yl)-3-(propan-2-yl)-1H-pyrazol-5-yl]methyl]-octahydropyrrolo[3,4-c]pyrrole-2-carboxylate]	< 100	≥ 75	1000 to 10000	< 25	25 to 75	1000 to 10000	> 75
O=C(OC(C(F)(F)F)C(F)(F)F)N1CC2CN(Cc3cccc(N4CCC5(CCOC5)C4)c3C(F)(F)F)CC2C1 (stereo not shown) [Example 128, 1,1,1,3,3,3-hexafluoropropan-2-yl 5-[(3-[2-oxa-7-azaspiro[4.4]nonan-7-yl]-2-(trifluoromethyl)phenyl)methyl]-octahydropyrrolo[3,4-c]pyrrole-2-carboxylate]	< 100	≤ 25	1000 to 10000	< 25	< 25	1000 to 10000	> 75
CCn1cc(CN2CC3CN(C(=O)OC(C(F)(F)F)C(F)(F)F)CC3C2)c(-c2cccc(N3CCC3)c2)n1 (stereo not shown) [Example 66, 1,1,1,3,3,3-Hexafluoropropan-2-yl 5-([3-[3-(azetidin-1-yl)phenyl]-1-ethyl-1H-pyrazol-4-yl]methyl)-octahydropyrrolo[3,4-c]pyrrole-2-carboxylate]	< 100	≤ 25	1000 to 10000	< 25	25 to 75	1000 to 10000	> 75
CCn1ncc(CN2CC3CN(C(=O)OC(C(F)(F)F)C(F)(F)F)CC3C2)c1C(=O)NC1CC1 (stereo not shown) [Example 74]	< 100	25 to 75	> 10000	< 25	25 to 75	100 to 1000	> 75
CCn1cc(CN2CC3CN(C(=O)OC(C(F)(F)F)C(F)(F)F)CC3C2)c(-c2ccccc2N2CCC2)n1 (stereo not shown) [Example 63, 1,1,1,3,3,3-Hexafluoropropan-2-yl 5-([3-[2-(azetidin-1-yl)phenyl]-1-ethyl-1H-pyrazol-4-yl]methyl)-octahydropyrrolo[3,4-c]pyrrole-2-carboxylate]	< 100	≥ 75	> 10000	< 25	25 to 75	100 to 1000	> 75
Cc1cc(CN2CC3CN(C(=O)OC(C(F)(F)F)C(F)(F)F)CC3C2)n(C2CCCCC2)n1 (stereo not shown) [Example 58, 1,1,1,3,3,3-Hexafluoropropan-2-yl 5-[(1-cyclohexyl-3-methyl-1H-pyrazol-5-yl)methyl]-octahydropyrrolo[3,4-c]pyrrole-2-carboxylate]	< 100	≥ 75	> 10000	< 25	25 to 75	1000 to 10000	> 75
CCn1ncc(CN2CC3CN(C(=O)OC(C(F)(F)F)C(F)(F)F)CC3C2)c1C(=O)NCCc1cccc(Cl)c1 (stereo not shown) [Example 180, 1,1,1,3,3,3-hexafluoropropan-2-yl 5-((5-((3-chlorophenethyl)carbamoyl)-1-ethyl-1H-pyrazol-4-yl)methyl)hexahydropyrrolo[3,4-c]pyrrole-2(1H)-carboxylate]	< 100	≤ 25	> 10000	< 25	< 25	1000 to 10000	> 75
CS(=O)(=O)N1CCN(c2cc(Cl)ccc2CN2CC3CN(C(=O)OC(C(F)(F)F)C(F)(F)F)CC3C2)CC1 (stereo not shown) [Example 36, 1,1,1,3,3,3-Hexafluoropropan-2-yl 5-[[4-chloro-2-(4-methanesulfonylpiperazin-1-yl)phenyl]methyl]-octahydropyrrolo[3,4-c]pyrrole-2-carboxylate]	< 100	25 to 75	1000 to 10000	< 25	25 to 75	100 to 1000	> 75
CCn1cc(CN2CC3CN(C(=O)OC(C(F)(F)F)C(F)(F)F)CC3C2)c(-c2cccc(N3CCCCC3)c2)n1 (stereo not shown) [Example 132, 1,1,1,3,3,3-hexafluoropropan-2-yl 5-([1-ethyl-3-[3-(piperidin-1-yl)phenyl]-1H-pyrazol-4-yl]methyl)-octahydropyrrolo[3,4-c]pyrrole-2-carboxylate]	< 100	≤ 25	1000 to 10000	< 25	< 25	1000 to 10000	> 75
O=C(OC(C(F)(F)F)C(F)(F)F)N1CC2CN(Cc3cc(CN4CCOCC4)ccc3OC(F)(F)F)CC2C1 (stereo not shown) [Example 188, 1,1,1,3,3,3-hexafluoropropan-2-yl 5-(5-(morpholinomethyl)-2-(trifluoromethoxy)benzyl)hexahydropyrrolo[3,4-c]pyrrole-2(1H)-carboxylate]	< 100	≥ 75	1000 to 10000	< 25	< 25	1000 to 10000	> 75
